What follows are compounds tested against T1, small-conductance Ca2+-activated K+ channels (SK channels, subtype 2) (Homo sapiens, UniProt Q9H2S1) (assay: whole-cell patch-clamp of ionic current through SK2 channels in HEK293 cells (SC100)). Settings: concentration that increases the basal current by 100%; HEK293 cells expressing SK2 channels.
T1 construct: expressed in transfected cells; host or cells: HEK293
Type: cell-based
Procedure, shortened: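 SC100, the concentration doubling basal current (a 100% increase), was taken from SK2 currents recorded by whole-cell patch-clamp in SK2-expressing HEK293 cells.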

Compound	SC100
Cc1ccn(-c2cc(Cl)cc(NC3CCC(F)(F)CC3)n2)n1 [Compound 179, 4-chloro-N-(4,4-difluorocyclohexyl)-6-(3-methyl-1H-pyrazol-1-yl)pyridin-2-amine]	++ (++ means 200 nM-1000 nM)
Cc1cc(NC2CCC(F)(F)CC2)nc(-c2nc(CO)cs2)n1 [Compound 270, (2-(4-((4,4-difluorocyclohexyl)amino)-6-methylpyrimidin-2-yl)thiazol-4-yl)methanol]	+ (+ means >1 uM)
Cc1cc(C)n(-c2cc(OCc3ncnn3C)cc(NC3CCC(F)(F)CC3)n2)n1 [Compound 271, N-(4,4-difluorocyclohexyl)-6-(3,5-dimethyl-1H-pyrazol-1-yl)-4-((1-methyl-1H-1,2,4-triazol-5-yl)methoxy)pyridin-2-amine]	++ (++ means 200 nM-1000 nM)
FCc1ccn(-c2cc(OC3COC3)cc(NC3CCC(F)(F)CC3)n2)n1 [Compound 302, N-(4,4-difluorocyclohexyl)-6-(3-(fluoromethyl)-1H-pyrazol-1-yl)-4-(oxetan-3-yloxy)pyridin-2-amine]	++ (++ means 200 nM-1000 nM)

Second part, the compound after the results:

SC100	Compound
+ (+ means >1 uM)	Cc1cc(C)n(-c2nc(C#N)cc(NC3CCC(F)(F)C3)n2)n1 (stereo not shown) [Compound 184, 6-((3,3-difluorocyclopentyl)amino)-2-(3,5-dimethyl-1H-pyrazol-1-yl)pyrimidine-4-carbonitrile]
+ (+ means >1 uM)	Cc1cc(C)n(-c2cc(N[C@@H]3CCN(C)C3=O)cc(NC3CCC(F)(F)CC3)n2)n1 (single isomer, unassigned) [Compound 139, (−)-3-((2-((4,4-difluorocyclohexyl)amino)-6-(3,5-dimethyl-1H-pyrazol-1-yl)pyridin-4-yl)amino)-1-methylpyrrolidin-2-one]

Same assay, conditions: whole-cell patch-clamp, HEK293 cells expressing SK2 channels; concentration that increases the basal current by 100%

Compound	SC100 (μM)
Cc1nc(-c2nc(NC3CCCCC3)cc(N3CCS(=O)(=O)CC3)n2)cs1 [NSSy6134]	+ (+ means >1 uM)
Cc1csc(-c2nc(NC3CCCCC3)cc(N3CCS(=O)(=O)CC3)n2)n1 [NSSy6131]	+++ (+++ means <200 nM)
Cc1cnc(-c2nc(NC3CCC(F)(F)CC3)cc(N3CCOCC3)n2)s1 [NSSy6067, N-(4,4-difluorocyclohexyl)-2-(5-methylthiazol-2-yl)-6-morpholinopyrimidin-4-amine]	+ (+ means >1 uM)
Cc1csc(-c2cc(N3CC(N(C)C)C3)cc(NC3CCC(F)(F)CC3)n2)n1 [NSSy5677]	++ (++ means 200 nM-1000 nM)
COC(C)c1cc(-n2nc(C)cc2C)nc(NC2CCC(F)(F)CC2)n1 (stereo not shown) [NSSy6612]	+ (+ means >1 uM)
Cc1ccn(-c2nc(NC3CCCC(C(F)(F)F)C3)cc(C(C)O)n2)n1 (stereo not shown) [IN10880-062-P1]	+ (+ means >1 uM)
Cc1ccn(-c2nc(NC3CCC(F)(F)CC3)cc(OC3CC(F)C3)n2)n1 (stereo not shown) [NSSy5647, N-(4,4-difluorocyclohexyl)-6-(3-fluorocyclobutoxy)-2-(3-methyl-1H-pyrazol-1-yl)pyrimidin-4-amine]	++ (++ means 200 nM-1000 nM)
COc1cnc(-n2ccc(C)n2)nc1NC1CCC(F)(F)CC1 [NSSy7055]	+ (+ means >1 uM)
Cc1ccn(-c2cc(C(O)Cc3cn(C)nn3)cc(NC3CCC(F)(F)CC3)n2)n1 (stereo not shown) [NSSy7079, 1-(2-((4,4-difluorocyclohexyl)amino)-6-(3-methyl-1H-pyrazol-1-yl)pyridin-4-yl)-2-(1-methyl-1H-1,2,3-triazol-4-yl)ethan-1-ol]	++ (++ means 200 nM-1000 nM)
Cc1ccn(-c2nc(NC3C(C)CCCC3C)cc(C(C)O)n2)n1 (stereo not shown) [IN10881-060-P1]	+ (+ means >1 uM)

More lines, now with the values ahead:

SC100 (μM)	Compound
+ (+ means >1 uM)	COC(C)c1cc(NC2CCC(F)(F)CC2)nc(-n2ccc(C)n2)n1 (stereo not shown) [IN10973-083-P1, N-(4,4-difluorocyclohexyl)-6-(1-methoxyethyl)-2-(3-methyl-1H-pyrazol-1-yl)pyrimidin-4-amine]
+ (+ means >1 uM)	CCOC(=O)c1cn(-c2nc(NC3CCC(F)(F)CC3)cc(N3CCOCC3)n2)nc1C [IN11216-043-P1]
+ (+ means >1 uM)	Cc1csc(-c2nc(NC3CCC(F)(F)CC3)cc(C(C)(F)F)n2)n1 [IN10876-082-P1, N-(4,4-difluorocyclohexyl)-6-(1,1-difluoroethyl)-2-(4-methylthiazol-2-yl)pyrimidin-4-amine]
+ (+ means >1 uM)	COC(C)c1cc(NC2CCCCC2(F)F)nc(-c2nc(C)cs2)n1 (stereo not shown) [IN11140-099-P1, N-(2,2-difluorocyclohexyl)-6-(1-methoxyethyl)-2-(4-methylthiazol-2-yl)pyrimidin-4-amine]
++ (++ means 200 nM-1000 nM)	Cc1ccn(-c2cc(N3CC(C)(O)C3)cc(NC3CCC(F)(F)CC3)n2)n1 [NSSy5721]
+++ (+++ means <200 nM)	Cc1cc(C)n(-c2cc(OCc3ncco3)cc(NC3CCC(F)(F)CC3)n2)n1 [IN11067-023-P1, N-(4,4-difluorocyclohexyl)-6-(3,5-dimethyl-1H-pyrazol-1-yl)-4-(oxazol-2-ylmethoxy)pyridin-2-amine]
++ (++ means 200 nM-1000 nM)	COC(=O)N1CCC(O)(c2cc(NC3CCC(F)(F)CC3)nc(-n3ccc(C)n3)c2)C1 (stereo not shown) [IN11251-035-P1, methyl 3-(2-((4,4-difluorocyclohexyl)amino)-6-(3-methyl-1H-pyrazol-1-yl)pyridin-4-yl)-3-hydroxypyrrolidine-1-carboxylate]
++ (++ means 200 nM-1000 nM)	Cc1ccn(-c2nc(NC3CCC(F)(F)CC3)cc(N3CCS(=O)(=O)CC3)n2)n1 [NSSy6111]
+++ (+++ means <200 nM)	Cc1ccn(-c2cc(COC3CCCNC3)cc(NC3CCC(F)(F)CC3)n2)n1 (stereo not shown) [IN11039-019-P1, N-(4,4-difluorocyclohexyl)-6-(3-methyl-1H-pyrazol-1-yl)-4-((piperidin-3-yloxy)methyl)pyridin-2-amine]
+ (+ means >1 uM)	Cc1ccn(-c2nc(NCC3CCCO3)cc(C(C)O)n2)n1 (stereo not shown) [IN10880-055-P1]
++ (++ means 200 nM-1000 nM)	COCc1cc(NC2CCC(F)(F)CC2)nc(-c2nc(C3CC3)cs2)n1 [IN11147-077-P1, 2-(4-cyclopropylthiazol-2-yl)-N-(4,4-difluorocyclohexyl)-6-(methoxymethyl)pyrimidin-4-amine]
+ (+ means >1 uM)	CC(O)c1cc(-n2ccc(C(F)(F)F)n2)nc(NC2CCC(F)(F)CC2)n1 (stereo not shown) [NSSy6614]
+ (+ means >1 uM)	COC(=O)N1CC(Oc2cc(NC3CCC(F)(F)CC3)nc(-c3csc(C)n3)n2)C1 [NSSy6132]
+++ (+++ means <200 nM)	Cc1ccn(-c2nc(COc3ccc(C(N)=O)nn3)cc(NC3CCC(F)(F)CC3)n2)n1 [IN11053-046-P1]
+ (+ means >1 uM)	Cc1noc(-c2nc(NC3CCC(F)(F)CC3)cc(N3CCOCC3)n2)n1 [NSSy5835, N-(4,4-difluorocyclohexyl)-2-(3-methyl-1,2,4-oxadiazol-5-yl)-6-morpholinopyrimidin-4-amine]
++ (++ means 200 nM-1000 nM)	OCc1cc(NC2CCC(F)(F)CC2)nc(-n2ccc(C3CC3)n2)c1 [IN11111-092-P1]
+ (+ means >1 uM)	Cc1ccn(-c2nc(NC3CCC(N(C)C)CC3)cc(N3CCOCC3)n2)n1 (stereo not shown) [NSSy6540]
++ (++ means 200 nM-1000 nM)	CC(=O)N1CCN(c2cc(-c3nc(C)cs3)nc(NC3CCC(F)(F)CC3)n2)CC1 [NSSy6598, 1-(4-(2-((4,4-difluorocyclohexyl)amino)-6-(4-methylthiazol-2-yl)pyrimidin-4-yl)piperazin-1-yl)ethan-1-one]

— patent US10774064B2 (Cadent Therapeutics, Inc., priority 2016, dated 2020)
